In ChEMBL document CHEMBL4052788, “Pocket detection and interaction-weighted ligand-similarity search yields novel high-affinity binders for Myocilin-OLF, a protein implicated in glaucoma” (Bioorg Med Chem Lett, 2017):

Columns and labels:
[1] = molecular target: T1, Myocilin (Homo sapiens, UniProt Q99972); assay: Binding affinity myocilin-OLF domain (unknown origin) by Sypro Orange dye-based DSF assay; conditions: read-out: Kd(app)
T1 sequence (Q99972 whole entry): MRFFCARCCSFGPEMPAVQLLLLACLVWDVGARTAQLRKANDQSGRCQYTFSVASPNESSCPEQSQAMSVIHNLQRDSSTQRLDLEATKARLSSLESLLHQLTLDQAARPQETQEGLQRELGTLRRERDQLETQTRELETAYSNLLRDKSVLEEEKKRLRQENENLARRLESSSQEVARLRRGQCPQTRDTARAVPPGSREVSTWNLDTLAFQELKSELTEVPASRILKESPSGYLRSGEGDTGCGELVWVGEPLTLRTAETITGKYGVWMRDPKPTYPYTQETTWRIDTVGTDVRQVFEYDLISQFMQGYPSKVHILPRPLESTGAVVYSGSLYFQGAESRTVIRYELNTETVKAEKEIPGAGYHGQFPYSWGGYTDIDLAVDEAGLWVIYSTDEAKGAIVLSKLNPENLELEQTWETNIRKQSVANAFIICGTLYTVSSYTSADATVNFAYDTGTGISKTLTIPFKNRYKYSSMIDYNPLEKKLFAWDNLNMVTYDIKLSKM

[2] = molecular target: T2, Myocilin (Homo sapiens) (UniProt Q99972); assay: Binding affinity myocilin-OLF domain (unknown origin) assessed as change in melting temperature by Sypro Orange dye-based DSF assay
T2 sequence (whole entry): T1 sequence (Q99972 whole entry)

[3] = molecular target: T1, Myocilin; assay: Binding affinity myocilin-OLF domain (unknown origin) by SRP assay
[4] = molecular target: T2, Myocilin (Homo sapiens); assay: Binding affinity myocilin-OLF domain (unknown origin) assessed as change in melting temperature by SRP assay

Structure (SMILES) | Kd [1] | ΔTm [2] | Kd [3] | ΔTm [4]
CN(C)c1ccc(/C=C/C(=O)c2cc(Cl)ccc2O)cc1 | 220 µM | 1.5 °C |  | 
COc1cc(C(=O)C(=O)c2ccc(O)c(OC)c2)ccc1O | 300 µM | 0.91 °C |  | 
Cc1cc(N(CCCl)CCCl)ccc1/C=N/NC(=O)Cc1cc(=O)oc2cc(O)ccc12 | 210 µM | 1.6 °C |  | 
Cc1ccc(C(C)C)cc1NC(=O)Nc1ccc([N+](=O)[O-])cc1 | 11 µM | 6.3 °C |  | 
O=C(Nc1ccc(Oc2ccc(NC(=O)Nc3ccc([N+](=O)[O-])cc3)cc2)cc1)Nc1ccc([N+](=O)[O-])cc1 | 0.65 µM | 11.2 °C |  | 
O=C1c2ccccc2C(=O)C1C(c1ccc([N+](=O)[O-])cc1)C1C(=O)c2ccccc2C1=O | 170 µM | 2.02 °C |  | 
O=C1Nc2ccc(I)cc2C1=Cc1cc(Br)c(O)c(Br)c1 [GW305074X] |  |  | 33.5 µM | 0.2 °C
COc1cccc(NC(S)=Nc2ccc(O)cc2)c1 |  | 32 °C |  | 
Nc1nc(N)c(/N=N/c2ccc(C(=O)O)cc2)c(N)n1 | 190 µM | 1.78 °C |  | 
O=c1cc(-c2ccc(O)cc2)oc2cc(O)cc(O)c12 [APIGENIN] |  |  | 41.6 µM | -0.3 °C
O=C(Cn1ccc(=O)[nH]c1=O)Nc1ccc(C(=O)O)c(O)c1 | 200 µM | 1.96 °C |  | 
O=C(/C=C/c1ccc(O)c(O)c1)c1ccccc1O | 0.099 µM | 16.4 °C |  | 
